IC50 data for 21 compounds are collected here from patent publication US20210395239A1 (Hoffmann-La Roche Inc., priority 2018, published 2021).

In the assay the target is T1, hTLR9 (Homo sapiens, UniProt Q9NR96).
T1 sequence (Q9NR96 26-1032): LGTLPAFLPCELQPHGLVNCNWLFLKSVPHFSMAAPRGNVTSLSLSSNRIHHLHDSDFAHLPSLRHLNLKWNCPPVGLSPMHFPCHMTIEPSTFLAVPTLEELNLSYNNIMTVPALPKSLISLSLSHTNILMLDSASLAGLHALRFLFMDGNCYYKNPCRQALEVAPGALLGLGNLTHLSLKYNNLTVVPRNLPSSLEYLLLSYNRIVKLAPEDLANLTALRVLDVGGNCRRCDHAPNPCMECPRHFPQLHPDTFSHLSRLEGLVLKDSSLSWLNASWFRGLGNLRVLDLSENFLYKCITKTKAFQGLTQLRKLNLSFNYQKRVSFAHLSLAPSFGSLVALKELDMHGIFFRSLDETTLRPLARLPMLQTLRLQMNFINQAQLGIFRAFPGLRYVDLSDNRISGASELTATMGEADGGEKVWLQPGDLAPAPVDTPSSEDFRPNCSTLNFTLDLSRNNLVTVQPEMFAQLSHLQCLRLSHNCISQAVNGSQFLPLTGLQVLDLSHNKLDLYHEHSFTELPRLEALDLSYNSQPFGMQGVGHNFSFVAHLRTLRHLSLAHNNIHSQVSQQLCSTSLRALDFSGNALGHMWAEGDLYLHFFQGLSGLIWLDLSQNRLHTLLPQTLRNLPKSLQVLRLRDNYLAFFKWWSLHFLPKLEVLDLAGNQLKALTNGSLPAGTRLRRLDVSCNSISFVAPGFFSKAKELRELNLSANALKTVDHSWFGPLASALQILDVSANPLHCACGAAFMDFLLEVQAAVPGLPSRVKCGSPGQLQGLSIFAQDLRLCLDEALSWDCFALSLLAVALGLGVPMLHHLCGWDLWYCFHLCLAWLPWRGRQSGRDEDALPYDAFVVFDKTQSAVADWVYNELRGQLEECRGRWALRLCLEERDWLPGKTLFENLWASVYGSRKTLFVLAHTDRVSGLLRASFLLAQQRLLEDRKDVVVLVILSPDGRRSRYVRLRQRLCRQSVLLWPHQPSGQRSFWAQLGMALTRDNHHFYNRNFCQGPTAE
The experiment in a line: HEK293-Blue-hTLR-9 cells assay (SEAP reporter, ODN2006 stimulation). The assay is classed as cell-based. Details: host or cells: HEK293 (HEK-Blue hTLR9). The note with it: HEK293-Blue-hTLR9 cells, ODN2006, 20 hrs; read-out: HEK/hTLR9 IC50. The essentials:
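Antagonism read as lowered SEAP reporter absorbance (620–655 nm, QUANTI-Blue, 2 h, 37 °C) in supernatants. Before that, ODN2006-stimulated HEK293-Blue cells stably expressing human TLR9 were exposed to compound dilutions at 1% final DMSO for 20 h at 37 °C.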
As to `C[C@@H]1CN(c2ccc(C#N)c3ncccc23)C[C@H](CN2CCN(c3ccc([C@H]4CNCCO4)cc3)CC2)O1` [Example 20, 5-[(2R,6S)-2-methyl-6-[[4-[4-[(2S)-morpholin-2-yl]phenyl]piperazin-1-yl]methyl]morpholin-4-yl]quinoline-8-carbonitrile], the IC50 came out at 96 nM.

As to `C[C@@H]1CN(c2ccc(C#N)n3ncc(F)c23)C[C@H](CN2CCN(c3ccc(C4CNCCO4)cc3F)CC2)O1` (stereo in doubt) [Example 183, 3-fluoro-4-[(2S,6R)-2-[[4-[2-fluoro-4-[(2S)-morpholin-2-yl]phenyl]piperazin-1-yl]methyl]-6-methyl-morpholin-4-yl]pyrazolo[1,5-a]pyridine-7-carbonitrile], the IC50 was 120 nM.

Consider `Cc1cc(N2CCN(C[C@H]3CN(c4ccc(C#N)c5ncccc45)C[C@@H](C)O3)CC2)nc(N2CC(N)C(F)C2)n1` (stereo in doubt) [Example 54, 5-[(2S,6R)-2-[[4-[2-[(3S,4R)-3-amino-4-fluoro-pyrrolidin-1-yl]-6-methyl-pyrimidin-4-yl]piperazin-1-yl]methyl]-6-methyl-morpholin-4-yl]quinoline-8-carbonitrile], for which the IC50 was 34 nM.

As for `C[C@@H]1CN(c2cc(=O)n(C)c3ncccc23)C[C@H](CN2CC(c3ccc(N4CCNCC4)cc3)C2)O1` [Example 171, 1-methyl-4-[(2R,6S)-2-methyl-6-[[3-(4-piperazin-1-ylphenyl)azetidin-1-yl]methyl]morpholin-4-yl]-1,8-naphthyridin-2-one], the IC50 stood at 35 nM.

Turning to `C[C@@H]1CN(c2ccc(C#N)c3ncccc23)C[C@H](CN2CCN(c3ccnc(N4CCNCC(O)C4)n3)CC2)O1` (stereo partly drawn) [Example 25, 5-[(2S,6R)-2-[[4-[2-(6-hydroxy-1,4-diazepan-1-yl)pyrimidin-4-yl]piperazin-1-yl]methyl]-6-methyl-morpholin-4-yl]quinoline-8-carbonitrile], the IC50 is 33 nM.

In the case of `C[C@@H]1CN(c2ccc(C#N)c3ncccc23)C[C@H](CN2CCN(c3ccc(N4CCNCC4)cn3)CC2)O1` [Example 8, 5-[(2R,6S)-2-methyl-6-[[4-(5-piperazin-1-yl-2-pyridyl)piperazin-1-yl]methyl]morpholin-4-yl]quinoline-8-carbonitrile], the IC50 came out at 93 nM.

On to `C[C@@H]1CN(c2ccc(C#N)c3ncccc23)C[C@H](CN2CCN(c3nc(N4CCNCC4)nc4ccccc34)CC2)O1` [Example 49, 5-[(2R,6S)-2-methyl-6-[[4-(2-piperazin-1-ylquinazolin-4-yl)piperazin-1-yl]methyl]morpholin-4-yl]quinoline-8-carbonitrile], for which the IC50 is 146 nM.

`C[C@@H]1CN(c2ccc(C#N)c3ncccc23)C[C@H](CN2CCN(c3cc(N4CCN(C)CC4)ncn3)CC2)O1` [Example 21, 5-[(2R,6S)-2-methyl-6-[[4-[6-(4-methylpiperazin-1-yl)pyrimidin-4-yl]piperazin-1-yl]methyl]morpholin-4-yl]quinoline-8-carbonitrile]: the IC50 was determined as 219 nM.

For `C[C@@H]1CN(c2ccc(C#N)c3ncccc23)C[C@H](CN2CCN(c3cccc(N[C@H]4CNC[C@H]4F)n3)CC2)O1` [Example 37, 5-[(2S,6R)-2-[[4-[6-[[(3S,4R)-4-fluoropyrrolidin-3-yl]amino]-2-pyridyl]piperazin-1-yl]methyl]-6-methyl-morpholin-4-yl]quinoline-8-carbonitrile], the IC50 stood at 234 nM.

As to `Cc1cc(N2CCN(C[C@H]3CN(c4ccc(C(F)(F)F)c5nccnc45)C[C@@H](C)O3)CC2)nc(N2CCNCC2)n1` [Example 65, (2R,6S)-2-methyl-6-[[4-(6-methyl-2-piperazin-1-yl-pyrimidin-4-yl)piperazin-1-yl]methyl]-4-[8-(trifluoromethyl)quinoxalin-5-yl]morpholine], the IC50 was 129 nM.

In the case of `C[C@@H]1CN(c2ccc(C#N)c3ncccc23)C[C@H](CN2CCN(c3cnc(N4CCNCC4)nc3)CC2)O1` [Example 12, 5-[(2R,6S)-2-methyl-6-[[4-(2-piperazin-1-ylpyrimidin-5-yl)piperazin-1-yl]methyl]morpholin-4-yl]quinoline-8-carbonitrile], the IC50 stood at 32 nM.

As to `C[C@@H]1CN(c2ccc(C#N)n3ncc(F)c23)C[C@H](CN2CCN(c3ccc(N4C[C@H]5NCCO[C@@H]5C4)nc3)CC2)O1` [Example 168, 4-[(2S,6R)-2-[[4-[6-[(4aR,7aR)-3,4,4a,5,7,7a-hexahydro-2H-pyrrolo[3,4-b][1,4]oxazin-6-yl]-3-pyridyl]piperazin-1-yl]methyl]-6-methyl-morpholin-4-yl]-3-fluoro-pyrazolo[1,5-a]pyridine-7-carbonitrile], the IC50 came out at 116 nM.

For the compound `C[C@@H]1CN(c2ccc(C#N)c3ncccc23)C[C@H](CN2CCN(c3ccnc(N4CCN(C)CC4)n3)CC2)O1` [Example 22, 5-((2R,6S)-2-methyl-6-((4-(2-(4-methylpiperazin-1-yl)pyrimidin-4-yl)piperazin-1-yl)methyl)morpholino)quinoline-8-carbonitrile], the IC50 stood at 45 nM.

For the compound `COC1CN(c2ccc(N3CCN(C[C@H]4CN(c5ccc(C#N)c6ncccc56)C[C@@H](C)O4)CC3)cn2)CC1N` (stereo partly drawn) [Example 43, 5-[(2S,6R)-2-[[4-[6-(3-amino-4-methoxy-pyrrolidin-1-yl)-3-pyridyl]piperazin-1-yl]methyl]-6-methyl-morpholin-4-yl]quinoline-8-carbonitrile], the IC50 is 119 nM.

In the case of `Cc1cc(N2CCN(C[C@H]3CN(c4ccc(C#N)c5ncccc45)C[C@@H](C)O3)CC2)nc(N2CC3(CNCCO3)C2)n1` [Example 61, 5-[(2R,6S)-2-methyl-6-[[4-[6-methyl-2-(5-oxa-2,8-diazaspiro[3.5]nonan-2-yl)pyrimidin-4-yl]piperazin-1-yl]methyl]morpholin-4-yl]quinoline-8-carbonitrile], the IC50 came out at 32 nM.

As to `C[C@@H]1CN(c2cc(=O)n(C)c3ncccc23)C[C@H](CN2CC(c3ccc(N4CC5(CNCCO5)C4)cc3)C2)O1` [Example 173, 1-methyl-4-[(2R,6S)-2-methyl-6-[[3-[4-(5-oxa-2,8-diazaspiro[3.5]nonan-2-yl)phenyl]azetidin-1-yl]methyl]morpholin-4-yl]-1,8-naphthyridin-2-one], the IC50 worked out at 60 nM.

In the case of `C[C@@H]1CN(c2cc(=O)n(C)c3ncccc23)C[C@H](CN2CC(c3ccc(N4CC5(CN(C)C5)C4)cc3)C2)O1` [Example 180, 1-methyl-4-[(2R,6S)-2-methyl-6-[[3-[4-(6-methyl-2,6-diazaspiro[3.3]heptan-2-yl)phenyl]azetidin-1-yl]methyl]morpholin-4-yl]-1,8-naphthyridin-2-one], the IC50 worked out at 41 nM.

For `COC1CNC[C@H]1Nc1cccc(N2CCN(C[C@H]3CN(c4ccc(C#N)c5ncccc45)C[C@@H](C)O3)CC2)n1` (stereo in doubt) [Example 39, 5-[(2S,6R)-2-[[4-[6-[[(3R,4R)-4-methoxypyrrolidin-3-yl]amino]-2-pyridyl]piperazin-1-yl]methyl]-6-methyl-morpholin-4-yl]quinoline-8-carbonitrile], the IC50 was 104 nM.

Turning to `C[C@@H]1CN(c2ccc(C#N)n3ncc(F)c23)C[C@H](CN2CCN(c3ccc(N4CC[C@@H](N)[C@H](F)C4)nc3)CC2)O1` [Example 175, 4-[(2S,6R)-2-[[4-[6-[(3R,4R)-4-amino-3-fluoro-1-piperidyl]-3-pyridyl]piperazin-1-yl]methyl]-6-methyl-morpholin-4-yl]-3-fluoro-pyrazolo[1,5-a]pyridine-7-carbonitrile], the IC50 came out at 66 nM.

Consider `C[C@@H]1CN(c2ccc(C#N)c3ncccc23)C[C@H](CN2CCN(c3ccnc(OCCN(C)C)n3)CC2)O1` [Example 30, 5-[(2S,6R)-2-[[4-[2-[2-(dimethylamino)ethoxy]pyrimidin-4-yl]piperazin-1-yl]methyl]-6-methyl-morpholin-4-yl]quinoline-8-carbonitrile], for which the IC50 was found to be 250 nM.

Turning to `Cc1cc(N2CCNCC2)nc(N2CCN(C[C@H]3CN(c4ccc(C#N)c5ncccc45)C[C@@H](C)O3)CC2)n1` [Example 68, 5-[(2R,6S)-2-methyl-6-[[4-(4-methyl-6-piperazin-1-yl-pyrimidin-2-yl)piperazin-1-yl]methyl]morpholin-4-yl]quinoline-8-carbonitrile], the IC50 turned out to be 95 nM.
